Data published in article PMC11183015, “In vivo stable ^211At-labeled prostate-specific membrane antigen-targeted tracer using a neopentyl glycol structure” (EJNMMI Radiopharmacy and Chemistry, 2024).
Each block holds one compound with its values, some of them ahead of it.

Assays:
LNCaP cell xenografts = experiment: Biodistribution of radioactivity in tumor-bearing mice; assay type: in vivo, mouse; conditions: LNCaP tumor-bearing BALB/c-nu/nu mice
Description: Animal studies were conducted in accordance with the institutional guidelines approved by the Chiba University Animal Care Committee (Permit No. 4–183). Five-week-old male ddY mice and BALB/c-nu/nu mice were purchased from Japan SLC Inc. (Hamamatsu, Japan). LNCaP cells (5.0 × 10^6 cells) were suspended in 100 μL of PBS and Matrigel (BD Biosciences, Franklin Lakes, NJ, USA) in a 1:1 ratio. Tumor xenograft models were prepared via subcutaneous injection of this LNCaP cell suspension into BALB/c nude mice.
Biodistribution studies were conducted using male BALB/c-nu/nu mice bearing LNCaP cell xenografts at 1 and 3 h postinjection of [^211At]At-NpG-D-PSMA (100 µL, 37 kBq) and 1 and 6 h postinjection of ^125I-labeled PSMA derivative (100 µL, 11.1 kBq). In the blocking study, [^125I]I-NpG-D-PSMA was coinjected with 2-PMPA (50 mg/kg weight) into tumor-bearing mice via the tail vein. At 1 h postinjection, the mice were sacrificed. The tissues of interest were excised and weighed, and the radioactivity counts in each tissue were determined using an auto-well gamma counter. Each value was expressed as the mean percent injected dose/g tissue ± SD for a group of 3–5 animals, except those for the stomach, intestine, and thyroid.

PSMA = PSMA (Homo sapiens, UniProt Q04609); experiment: Competitive inhibition of [125I]DCIT binding to LNCaP cells; parameters: endogenous in cells; host or cells: LNCaP (human prostate cancer cell line, RIKEN BRC); conditions: competitor [125I]DCIT, 37 °C, 1 h
Description: The human prostate cancer cell line LNCaP was provided by RIKEN BioResource Center (BRC) through the National BioResource Project of MEXT/AMED, Japan. LNCaP cells were cultured according to protocols prescribed by RIKEN BRC. LNCaP cells were seeded in 24-well plates (~ 1.5 × 10^5 cells/500 µL/well) coated with 0.01% poly-L-lysine (Sigma-Aldrich, Tokyo). After washing twice with assay medium (RPMI 1640 supplemented with 0.5% BSA), 250 µL of assay medium was added to each well. Each PSMA derivative and [^125I]DCIT dissolved in assay medium (250 µL) were added to the well, and the plates were then incubated at 37 °C for 1 h. After removing the assay medium, the cells were washed twice with assay medium (250 µL × 2). All cells were lysed with 1 M NaOH (500 µL), and the solution was collected. The cells were washed twice with PBS (250 µL × 2), and the solution was mixed with the previous solution. The radioactivity in the solution was measured using an auto-well gamma counter. The IC50 value was calculated by fitting with nonlinear regression using GraphPad Prism 8.4.3 (GraphPad Software, Inc., San Diego).

[1] = Biodistribution of radioactivity in normal mice; assay type: in vivo, mouse; conditions: normal ddY mice, i.v.
Description: Six-week-old male ddY mice were injected via the tail vein with each radiolabeled PSMA derivative. Animals were sacrificed and the organs were dissected at 10 min, 1 h, 3 h, and 6 h after injection. Metabolic cages were used for housing normal mice. The tissues of interest were excised and weighed, and the radioactivity counts in each tissue were determined using an auto-well gamma counter. Each value was expressed as the mean percent injected dose/g tissue ± SD for a group of 3–5 animals, except those for the stomach, intestine, and thyroid.

PSMA, sequence (Q04609 whole entry): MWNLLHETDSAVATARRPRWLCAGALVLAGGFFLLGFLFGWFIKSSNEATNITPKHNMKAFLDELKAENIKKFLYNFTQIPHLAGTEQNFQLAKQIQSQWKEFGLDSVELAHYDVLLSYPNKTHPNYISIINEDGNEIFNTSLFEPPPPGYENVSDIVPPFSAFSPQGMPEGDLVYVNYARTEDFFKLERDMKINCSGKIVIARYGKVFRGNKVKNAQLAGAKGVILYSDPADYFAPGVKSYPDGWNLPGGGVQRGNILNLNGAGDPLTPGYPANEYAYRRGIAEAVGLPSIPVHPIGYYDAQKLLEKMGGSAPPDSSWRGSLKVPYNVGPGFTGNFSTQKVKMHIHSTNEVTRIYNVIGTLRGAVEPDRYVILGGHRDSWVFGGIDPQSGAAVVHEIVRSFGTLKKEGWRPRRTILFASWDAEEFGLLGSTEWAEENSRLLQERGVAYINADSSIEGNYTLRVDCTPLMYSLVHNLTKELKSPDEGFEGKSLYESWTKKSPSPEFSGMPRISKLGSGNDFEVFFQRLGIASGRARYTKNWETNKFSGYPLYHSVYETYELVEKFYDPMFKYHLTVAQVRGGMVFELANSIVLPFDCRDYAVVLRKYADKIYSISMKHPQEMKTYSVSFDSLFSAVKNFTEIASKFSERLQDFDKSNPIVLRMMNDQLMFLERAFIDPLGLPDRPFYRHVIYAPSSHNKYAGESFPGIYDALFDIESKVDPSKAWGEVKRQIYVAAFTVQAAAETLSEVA

SMILES: O=C(O)CCC(NC(=O)NC(CCCCNC(=O)C(Cc1ccc2ccccc2c1)NC(=O)C(CCC(=O)O)NC(=O)C(CCC(=O)O)NC(=O)COCC(CO)(CO)CI)C(=O)O)C(=O)O [I-NpG-L-PSMA]
- IC50 (PSMA): 4.04 nM

SMILES: O=C([O-])CN1CCN(CC(=O)[O-])CCN(CC(=O)NC[C@H]2CC[C@H](C(=O)N[C@@H](Cc3ccc4ccccc4c3)C(=O)NCCCC[C@H](NC(=O)N[C@@H](CCC(=O)O)C(=O)O)C(=O)O)CC2)CCN(CC(=O)[O-])CC1.[Ga+3] [Ga-PSMA-617, reference compound]
- IC50 (PSMA): 7.56 nM

SMILES: O=C(O)CCC(NC(=O)NC(CCCCNC(=O)C(Cc1ccc2ccccc2c1)NC(=O)C(CCC(=O)O)NC(=O)C(CCC(=O)O)NC(=O)COCC(CO)(CO)CI)C(=O)O)C(=O)O [I-NpG-D-PSMA]
- IC50 (PSMA): 6.06 nM

Continued, values first:

- Radioactivity in Blood (LNCaP cell xenografts; 1 h): 0.41 ± 0.10 %ID/g
- Radioactivity in Bone (LNCaP cell xenografts; 1 h): 0.40 ± 0.22 %ID/g
- Radioactivity in Heart (LNCaP cell xenografts; 1 h): 0.65 ± 0.22 %ID/g
- Radioactivity in Intestine (LNCaP cell xenografts; 1 h): 1.94 ± 0.22 %ID
- Radioactivity in Kidney (LNCaP cell xenografts; 1 h): 181 ± 13.5 %ID/g
- Radioactivity in Liver (LNCaP cell xenografts; 1 h): 0.38 ± 0.08 %ID/g
- Radioactivity in Lung (LNCaP cell xenografts; 1 h): 1.84 ± 0.22 %ID/g
- Radioactivity in Muscle (LNCaP cell xenografts; 1 h): 0.30 ± 0.12 %ID/g
- Radioactivity in Neck (LNCaP cell xenografts; 1 h): 0.04 ± 0.03 %ID
- Radioactivity in Pancreas (LNCaP cell xenografts; 1 h): 0.95 ± 0.48 %ID/g
- Radioactivity in Spleen (LNCaP cell xenografts; 1 h): 11.8 ± 1.26 %ID/g
- Radioactivity in Stomach (LNCaP cell xenografts; 1 h): 0.37 ± 0.15 %ID
- Radioactivity in Tumor (LNCaP cell xenografts; 1 h): 13.4 ± 3.17 %ID/g
- Radioactivity in Blood (LNCaP cell xenografts; 3 h): 0.09 ± 0.02 %ID/g
- Radioactivity in Bone (LNCaP cell xenografts; 3 h): 0.29 ± 0.18 %ID/g
- Radioactivity in Heart (LNCaP cell xenografts; 3 h): 0.23 ± 0.08 %ID/g
- Radioactivity in Intestine (LNCaP cell xenografts; 3 h): 1.74 ± 0.39 %ID
- Radioactivity in Kidney (LNCaP cell xenografts; 3 h): 132 ± 37.8 %ID/g
- Radioactivity in Liver (LNCaP cell xenografts; 3 h): 0.11 ± 0.04 %ID/g
- Radioactivity in Lung (LNCaP cell xenografts; 3 h): 0.55 ± 0.06 %ID/g
- Radioactivity in Muscle (LNCaP cell xenografts; 3 h): 0.13 ± 0.09 %ID/g
- Radioactivity in Neck (LNCaP cell xenografts; 3 h): 0.05 ± 0.04 %ID
- Radioactivity in Pancreas (LNCaP cell xenografts; 3 h): 0.27 ± 0.05 %ID/g
- Radioactivity in Spleen (LNCaP cell xenografts; 3 h): 4.67 ± 3.27 %ID/g
- Radioactivity in Stomach (LNCaP cell xenografts; 3 h): 0.55 ± 0.33 %ID
- Radioactivity in Tumor (LNCaP cell xenografts; 3 h): 16.9 ± 8.45 %ID/g
SMILES: O=C(O)CCC(NC(=O)NC(CCCCNC(=O)C(Cc1ccc2ccccc2c1)NC(=O)C(CCC(=O)O)NC(=O)C(CCC(=O)O)NC(=O)COCC(CO)(CO)C[211At])C(=O)O)C(=O)O [[^211At]At-NpG-D-PSMA]

- Radioactivity in Blood ([1]; 10 min): 3.84 ± 0.55 %ID/g
- Radioactivity in Bone ([1]; 10 min): 1.54 ± 0.19 %ID/g
- Radioactivity in Heart ([1]; 10 min): 1.51 ± 0.13 %ID/g
- Radioactivity in Intestine ([1]; 10 min): 1.58 ± 0.17 %ID
- Radioactivity in Kidney ([1]; 10 min): 82.9 ± 12.2 %ID/g
- Radioactivity in Liver ([1]; 10 min): 0.98 ± 0.13 %ID/g
- Radioactivity in Lung ([1]; 10 min): 3.52 ± 0.29 %ID/g
- Radioactivity in Muscle ([1]; 10 min): 1.34 ± 0.18 %ID/g
- Radioactivity in Neck ([1]; 10 min): 0.03 ± 0.01 %ID
- Radioactivity in Pancreas ([1]; 10 min): 1.20 ± 0.22 %ID/g
- Radioactivity in Spleen ([1]; 10 min): 1.76 ± 0.68 %ID/g
- Radioactivity in Stomach ([1]; 10 min): 0.32 ± 0.03 %ID
- Radioactivity in Blood ([1]; 1 h): 0.26 ±0.15 %ID/g
- Radioactivity in Bone ([1]; 1 h): 0.20 ± 0.09 %ID/g
- Radioactivity in Intestine ([1]; 1 h): 0.83 ± 0.25 %ID
- Radioactivity in Kidney ([1]; 1 h): 11.1 ± 3.22 %ID/g
- Radioactivity in Liver ([1]; 1 h): 0.15 ± 0.03 %ID/g
- Radioactivity in Lung ([1]; 1 h): 0.26 ± 0.12 %ID/g
- Radioactivity in Muscle ([1]; 1 h): 0.15 ± 0.07 %ID/g
- Radioactivity in Neck ([1]; 1 h): 0.01 ± 0.01 %ID
- Radioactivity in Pancreas ([1]; 1 h): 0.11 ± 0.04 %ID/g
- Radioactivity in Spleen ([1]; 1 h): 0.12 ± 0.08 %ID/g
- Radioactivity in Stomach ([1]; 1 h): 0.57 ± 0.31 %ID
- Radioactivity in Heart ([1]; 3 h): 0.02 ± 0.03 %ID/g
- Radioactivity in Intestine ([1]; 3 h): 0.21 ± 0.09 %ID
- Radioactivity in Kidney ([1]; 3 h): 1.12 ± 0.34 %ID/g
- Radioactivity in Liver ([1]; 3 h): 0.06 ± 0.00 %ID/g
- Radioactivity in Lung ([1]; 3 h): 0.03 ± 0.02 %ID/g
- Radioactivity in Muscle ([1]; 3 h): 0.02 ± 0.02 %ID/g
- Radioactivity in Neck ([1]; 3 h): 0.00 ± 0.00 %ID
- Radioactivity in Stomach ([1]; 3 h): 0.03 ± 0.02 %ID
- Radioactivity in Intestine ([1]; 6 h): 0.34 ± 0.17 %ID
- Radioactivity in Kidney ([1]; 6 h): 1.06 ± 0.42 %ID/g
- Radioactivity in Liver ([1]; 6 h): 0.05 ±0.01 %ID/g
- Radioactivity in Lung ([1]; 6 h): 0.02 ± 0.02 %ID/g
- Radioactivity in Muscle ([1]; 6 h): 0.02 ± 0.02 %ID/g
- Radioactivity in Neck ([1]; 6 h): 0.00 ± 0.00 %ID
- Radioactivity in Stomach ([1]; 6 h): 0.05 ± 0.03 %ID
- Radioactivity in Feces ([1]; 6 h, metabolic cages): 0.19 ± 0.12 %ID
- Radioactivity in Urine ([1]; 6 h, metabolic cages): 66.7 ± 15.8 %ID
SMILES: O=C([O-])CN1CCN(CC(=O)[O-])CCN(CC(=O)NC[C@H]2CC[C@H](C(=O)N[C@@H](Cc3ccc4ccccc4c3)C(=O)NCCCC[C@H](NC(=O)N[C@@H](CCC(=O)O)C(=O)O)C(=O)O)CC2)CCN(CC(=O)[O-])CC1.[67Ga+3] [[^67Ga]Ga-PSMA-617, reference compound]
